This note sets out measurements from paper PMC3914206.

For experiment [1], the target named is T1, panel of 442 kinases (Homo sapiens, UniProt Q8TDC3).
T1 construct: purchased KINOMEscan
T1 sequence (Q8TDC3 1-778): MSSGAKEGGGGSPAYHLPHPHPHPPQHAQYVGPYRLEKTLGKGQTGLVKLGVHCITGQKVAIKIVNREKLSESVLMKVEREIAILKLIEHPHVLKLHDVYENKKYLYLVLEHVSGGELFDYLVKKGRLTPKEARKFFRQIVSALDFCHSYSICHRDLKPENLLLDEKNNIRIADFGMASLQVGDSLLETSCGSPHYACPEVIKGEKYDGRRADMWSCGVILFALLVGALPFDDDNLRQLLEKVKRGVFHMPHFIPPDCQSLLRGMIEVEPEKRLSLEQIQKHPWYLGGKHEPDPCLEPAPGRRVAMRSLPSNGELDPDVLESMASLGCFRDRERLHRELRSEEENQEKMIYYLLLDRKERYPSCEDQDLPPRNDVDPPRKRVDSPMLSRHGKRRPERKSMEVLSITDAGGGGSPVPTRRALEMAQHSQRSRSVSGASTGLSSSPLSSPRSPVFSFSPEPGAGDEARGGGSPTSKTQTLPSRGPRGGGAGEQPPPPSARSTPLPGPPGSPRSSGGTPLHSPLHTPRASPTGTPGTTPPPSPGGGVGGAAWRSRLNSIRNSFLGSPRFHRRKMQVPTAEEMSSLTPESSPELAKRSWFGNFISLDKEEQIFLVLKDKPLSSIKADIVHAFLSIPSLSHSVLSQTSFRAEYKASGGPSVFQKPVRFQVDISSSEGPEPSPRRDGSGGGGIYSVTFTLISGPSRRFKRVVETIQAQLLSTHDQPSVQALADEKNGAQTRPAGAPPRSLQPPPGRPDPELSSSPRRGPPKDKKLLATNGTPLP
The format is binding. The arrangement: KINOMEscan: ABL1(F317L)-phosphorylated / KINOMEscan: ABL1(H396P)-nonphosphorylated / KINOMEscan: ABL1(H396P)-phosphorylated / KINOMEscan: ABL1(M351T)-phosphorylated / KINOMEscan: ABL1(T315I)-phosphorylated / KINOMEscan: ABL1-nonphosphorylated / KINOMEscan: ABL1-phosphorylated / KINOMEscan: ACVR2A / KINOMEscan: ACVR2B / KINOMEscan: ADCK3 / KINOMEscan: ADCK4 / KINOMEscan: AKT1 / KINOMEscan: AKT3 / KINOMEscan: ALK / KINOMEscan: ARK5 / KINOMEscan: AURKA / KINOMEscan: AURKC / KINOMEscan: BIKE / KINOMEscan: BMPR1A / KINOMEscan: BMPR1B / KINOMEscan: BMX / KINOMEscan: BRK / KINOMEscan: BRSK1 / KINOMEscan: BRSK2 / KINOMEscan: CAMK1 / KINOMEscan: CAMK1D / KINOMEscan: CAMK1G / KINOMEscan: CAMK2A / KINOMEscan: CAMK2B / KINOMEscan: AAK1 / KINOMEscan: CAMK2D / KINOMEscan: CAMK2G / KINOMEscan: ABL1(F317I)-nonphosphorylated / KINOMEscan: ABL1(F317I)-phosphorylated / KINOMEscan: ABL1(F317L)-nonphosphorylated: unit: % Ctrl. Particulars: Compound Concentration 10 µM. The source says: (§1) We assessed the selectivity of members of this scaffold using the KINOMEscan methodology across a near comprehensive panel of 442 kinases [[18,27]].

The target of experiment [2] is T2, panel of 442 kinases (Homo sapiens, UniProt P42680).
T2 construct: purchased KINOMEscan
T2 sequence (P42680 1-631): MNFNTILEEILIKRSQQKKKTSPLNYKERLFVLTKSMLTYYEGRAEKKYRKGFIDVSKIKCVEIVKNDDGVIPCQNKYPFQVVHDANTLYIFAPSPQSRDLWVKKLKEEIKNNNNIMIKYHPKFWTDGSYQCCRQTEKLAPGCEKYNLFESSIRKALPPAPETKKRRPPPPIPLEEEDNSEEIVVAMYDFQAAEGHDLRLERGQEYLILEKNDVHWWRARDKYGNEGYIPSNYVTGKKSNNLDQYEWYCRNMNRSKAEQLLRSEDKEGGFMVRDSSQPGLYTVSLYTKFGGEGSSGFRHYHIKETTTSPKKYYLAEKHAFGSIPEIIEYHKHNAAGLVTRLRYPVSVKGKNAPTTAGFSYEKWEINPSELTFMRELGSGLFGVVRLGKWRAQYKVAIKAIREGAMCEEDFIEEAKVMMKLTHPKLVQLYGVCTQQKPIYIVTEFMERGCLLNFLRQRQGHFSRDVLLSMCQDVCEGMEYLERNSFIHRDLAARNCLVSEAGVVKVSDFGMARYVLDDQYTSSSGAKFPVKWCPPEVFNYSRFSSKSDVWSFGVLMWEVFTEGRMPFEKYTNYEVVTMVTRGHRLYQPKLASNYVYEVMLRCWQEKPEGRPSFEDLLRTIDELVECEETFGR
Type of experiment: binding. Set-up: KINOMEscan: ABL1(F317L)-phosphorylated / KINOMEscan: ABL1(H396P)-nonphosphorylated / KINOMEscan: ABL1(H396P)-phosphorylated / KINOMEscan: ABL1(M351T)-phosphorylated / KINOMEscan: ABL1(T315I)-phosphorylated / KINOMEscan: ABL1-nonphosphorylated / KINOMEscan: ABL1-phosphorylated / KINOMEscan: ACVR2A / KINOMEscan: ACVR2B / KINOMEscan: ADCK3 / KINOMEscan: ADCK4 / KINOMEscan: AKT1 / KINOMEscan: AKT3 / KINOMEscan: ALK / KINOMEscan: ARK5 / KINOMEscan: AURKA / KINOMEscan: AURKC / KINOMEscan: BIKE / KINOMEscan: BMPR1A / KINOMEscan: BMPR1B / KINOMEscan: BMX / KINOMEscan: BRK / KINOMEscan: BRSK1 / KINOMEscan: BRSK2 / KINOMEscan: CAMK1 / KINOMEscan: CAMK1D / KINOMEscan: CAMK1G / KINOMEscan: CAMK2A / KINOMEscan: CAMK2B / KINOMEscan: AAK1 / KINOMEscan: CAMK2D / KINOMEscan: CAMK2G / KINOMEscan: ABL1(F317I)-nonphosphorylated / KINOMEscan: ABL1(F317I)-phosphorylated / KINOMEscan: ABL1(F317L)-nonphosphorylated: unit: % Ctrl. Particulars: kinase TEC; compound concentration 10 µM.
Excerpt: as §1

The structures appear in SMILES notation.

`CCOc1cc(C(=O)N2CCC(N3CCN(C)CC3)CC2)ccc1Nc1ncc2c(n1)N(C1CCCC1)c1ccccc1C(=O)N2C` [Compound 26]: the “KINOMEscan: BRSK1” value at panel of 442 kinases [1] was found to be 100. In addition, at panel of 442 kinases [2], the “% Ctrl, TEC” value is recorded as 100 % Ctrl.

Regarding `COc1cc(C(=O)N2CCC(N3CCN(C)CC3)CC2)ccc1Nc1ncc2c(n1)N1CCc3cccc(c31)C(=O)N2C` [Compound 24], the “KINOMEscan: BRSK1” value at panel of 442 kinases [1] is 82. In addition, at panel of 442 kinases [2], the “% Ctrl, TEC” value was 100 % Ctrl.

With `COc1cc(C(=O)N2CCC(N3CCN(C)CC3)CC2)ccc1Nc1ncc2c(n1)N(C)c1ccccc1C(=O)N2C` [15 (LRRK2-IN-1)], at panel of 442 kinases [1], the “KINOMEscan: BRSK1” value was 81. For the same compound, on panel of 442 kinases [2], the “% Ctrl, TEC” value is on record as 100 % Ctrl.

As for `COc1cc(C(=O)N2CCC(N3CCN(C)CC3)CC2)ccc1Nc1ncc2c(n1)N(C1CCCC1)c1ccccc1C(=O)N2C` [Compound 25, 11-cyclopentyl-2-((2-methoxy-4-(4-(4-methylpiperazin-1-yl)piperidine-1-carbonyl)phenyl)amino)-5-methyl-5H-benzo[e]pyrimido[5,4-b][1,4]diazepin-6(11H)-one], at panel of 442 kinases [1], the “KINOMEscan: BRSK1” value is 84. The “% Ctrl, TEC” value on panel of 442 kinases [2] was found to be 91 % Ctrl.
